The values that follow come from patent US4357325A, “Methods of controlling Pasteurella infections” (Eli Lilly and Company, priority 1981, dated 1982).

In brackets after ≈: the same amount, converted by molar mass.

Test [1] relates to P. haemolytica. As to the kind of experiment: MIC by conventional broth-dilution assay against P. haemolytica strains (Table II). The conditions noted are these: Mannheimia haemolytica. It counts as cell-based, P. haemolytica (bovine strains). On the procedure:
(§1) For example, representative compounds were tested against avian, bovine and porcine Pasteurella species, using the conventional broth-dilution assay. The P. haemolytica strains are bovine strains; the P. multocida strains are avian, bovine and porcine strains.

Test [2] deals with P. multocida. As to the kind of experiment: MIC by conventional broth-dilution assay against P. multocida strains (Table II). It counts as cell-based, P. multocida (avian, bovine and porcine strains). The conditions noted are these: Pasteurella multocida. On the procedure:
as §1

In test [3] the test system is Pasteurella multocida. Kind of test: Treatment of Pasteurellosis in chicks (Table III). It counts as in vivo, chicks; avian P. multocida. Conditions: 1 and 4 h post challenge, 5 days observation, ten chicks per group. The protocol: Representative compounds were evaluated in groups of ten one-day-old chicks at the specified dosage of subcutaneous injection given one and four hours post challenge of the chicks with Pasteurella multocida (0.1 ml of a 20-hour tryptose broth culture of an avian P. multocida given subcutaneously). The compounds (as free bases) were administered in an aqueous propylene glycol solution; non-medicated water and feed were provided to the animals ad libitum.

Test [4] concerns Pasteurella multocida. Kind of test: Treatment of Pasteurellosis in mice (Table IV). Format: in vivo, mice; bovine isolate of P. multocida. The conditions noted are these: 50 mg/kg × 2 s.c., 1 and 4 h post challenge, 7 days. On the procedure: Cirramycin A1 and rosaramicin were evaluated in mice by subcutaneous injection given one and four hours post challenge of the mice with Pasteurella multocida (0.1 ml of a 10^-5 dilution of a tryptose broth culture of a bovine isolate). Mortality was evaluated for the following seven days.

The mark [5] stands for this setting: 30 mg/kg × 2 s.c., first (or only) experiment.
[6] abbreviates: 30 mg/kg × 2 s.c., second experiment.

By MIC is commonly meant the lowest concentration found to suppress growth. A higher MIC goes with a need for much substance.

Turning to `CCC1OC(=O)CC(O)C(C)C(OC2OC(C)C(O)C(N(C)C)C2O)C(CC=O)CC(C)C(=O)C=CC(C)=CC1COC1OC(C)C(O)C(OC)C1OC` (stereo not shown) [Desmycosin, desmycosin], the MIC amounted to 25 µg/mL (≈ 32.4 µM) in test [1] (P. haemolytica strain 23A); 25 µg/mL (≈ 32.4 µM) in test [1] (P. haemolytica strain 23C); 25 µg/mL (≈ 32.4 µM) in test [1] (P. haemolytica strain 41D); 12.5 µg/mL (≈ 16.2 µM) in test [2] (P. multocida strain 17E); 12.5 µg/mL (≈ 16.2 µM) in test [2] (P. multocida strain 22A); 25 µg/mL (≈ 32.4 µM) in test [2] (P. multocida strain 40G). The results for the MIC in test [2] (P. multocida strain 60A) and in test [2] (P. multocida strain 68C) were 12.5 µg/mL (≈ 16.2 µM) and 6.25 µg/mL (≈ 8.1 µM), respectively. Moreover, the “Deaths in Treated Chicks/Deaths in Infected Nonmedicated Controls” value (“Deaths in Treated Chicks/Deaths” for short) in test [3] (setting [5]) and in test [3] (setting [6]) was 0/10 throughout.
For the compound `CCC1OC(=O)CC(O)C(C)C(OC2OC(C)C(O)C(N(C)C)C2O)C(CCO)CC(C)C(=O)C=CC(C)=CC1COC1OC(C)C(O)C(OC)C1OC` (stereo not shown) [20-Dihydrodesmycosin, 20-dihydrodesmycosin], the MIC in test [1] (P. haemolytica strain 23A) stood at 50 µg/mL (≈ 64.6 µM); in test [1] (P. haemolytica strain 23C), 50 µg/mL (≈ 64.6 µM); in test [1] (P. haemolytica strain 41D), 50 µg/mL (≈ 64.6 µM); in test [2] (P. multocida strain 17E) it was 25 µg/mL (≈ 32.3 µM); in test [2] (P. multocida strain 22A), 25 µg/mL (≈ 32.3 µM); in test [2] (P. multocida strain 40G) it was 50 µg/mL (≈ 64.6 µM). Moreover, the minimal inhibitory concentration (MIC) in test [2] (P. multocida strain 60A) was 25 µg/mL (≈ 32.3 µM); in test [2] (P. multocida strain 68C), 6.25 µg/mL (≈ 8.08 µM). In addition, the “Deaths in Treated Chicks/Deaths” value in test [3] (setting [5]) and in test [3] (setting [6]) was 0/10 in each case.
With `CCC1OC(=O)CC(O)C(C)C(OC2OC(C)C(O)C(N(C)C)C2O)C(CC=O)CC(C)C(=O)C=CC(C)=CC1COC1OC(C)C(O)C(O)C1OC` (stereo not shown) [Lactenocin, lactenocin], the MIC in test [1] (P. haemolytica strain 23A) is 25 µg/mL (≈ 33 µM); in test [1] (P. haemolytica strain 23C), 25 µg/mL (≈ 33 µM); in test [1] (P. haemolytica strain 41D), 50 µg/mL (≈ 66 µM); in test [2] (P. multocida strain 17E) it was 12.5 µg/mL (≈ 16.5 µM); in test [2] (P. multocida strain 22A), 12.5 µg/mL (≈ 16.5 µM); in test [2] (P. multocida strain 40G), 25 µg/mL (≈ 33 µM). For the same compound, the MIC in test [2] (P. multocida strain 60A) and in test [2] (P. multocida strain 68C) was 6.25 µg/mL (≈ 8.25 µM) in each case. Also, the “Deaths in Treated Chicks/Deaths” value in test [3] (setting [5]) and in test [3] (setting [6]) was 0/10 throughout.
In the case of `CCC1OC(=O)CC(O)C(C)C(OC2OC(C)C(O)C(N(C)C)C2O)C(CC=O)CC(C)C(O)C=CC(C)=CC1COC1OC(C)C(O)C(OC)C1OC` (stereo not shown) [9-Dihydrodesmycosin, 9-dihydrodesmycosin], the MIC in test [1] (P. haemolytica strain 23A) was found to be 25 µg/mL (≈ 32.3 µM); in test [1] (P. haemolytica strain 23C), 25 µg/mL (≈ 32.3 µM); in test [1] (P. haemolytica strain 41D), 25 µg/mL (≈ 32.3 µM); in test [2] (P. multocida strain 17E), 12.5 µg/mL (≈ 16.2 µM); in test [2] (P. multocida strain 22A), 12.5 µg/mL (≈ 16.2 µM); in test [2] (P. multocida strain 40G), 12.5 µg/mL (≈ 16.2 µM). In addition, the MIC in test [2] (P. multocida strain 60A) and in test [2] (P. multocida strain 68C) was 12.5 µg/mL (≈ 16.2 µM) throughout. For the same compound, the “Deaths in Treated Chicks/Deaths” value in test [3] (setting [5]) is 3/10; in test [3] (setting [6]), 0/10.
For the compound `CCC1OC(=O)CC(O)C(C)C(OC2OC(C)C(O)C(N(C)C)C2O)C(CC=O)CC(C)C(=O)C=CC2(C)OC2C1C` (stereo not shown) [Cirramycin A1, cirramycin A1], the MIC in test [1] (P. haemolytica strain 23A) turned out to be 3.12 µg/mL (≈ 5.22 µM); in test [1] (P. haemolytica strain 23C), 3.12 µg/mL (≈ 5.22 µM); in test [1] (P. haemolytica strain 41D) it was 3.12 µg/mL (≈ 5.22 µM); in test [2] (P. multocida strain 17E) it was 1.56 µg/mL (≈ 2.61 µM); in test [2] (P. multocida strain 22A) it was 3.12 µg/mL (≈ 5.22 µM); in test [2] (P. multocida strain 40G) it was 3.12 µg/mL (≈ 5.22 µM). Further, the MIC in test [2] (P. multocida strain 60A) is ≤ 0.78 µg/mL; in test [2] (P. multocida strain 68C), 1.56 µg/mL (≈ 2.61 µM). Moreover, the “No. Died/No. Treated” value in test [4] (Test A, replicate 1) is listed as 1/5; in test [4] (Test A, replicate 2), 2/5; in test [4] (Test B, replicate 1), 1/5; in test [4] (Test B, replicate 2) it was 0/5.
In the case of `CC[C@H]1OC(=O)C[C@@H](O)[C@H](C)[C@@H](O[C@@H]2O[C@H](C)C[C@H](N(C)C)[C@H]2O)[C@@H](CC=O)C[C@@H](C)C(=O)/C=C/[C@]2(C)O[C@H]2[C@@H]1C` [Rosaramicin, rosaramicin], the MIC was 1.56 µg/mL (≈ 2.68 µM) in test [1] (P. haemolytica strain 23A); 12.5 µg/mL (≈ 21.5 µM) in test [1] (P. haemolytica strain 23C); 1.56 µg/mL (≈ 2.68 µM) in test [1] (P. haemolytica strain 41D); ≤ 0.78 µg/mL in test [2] (P. multocida strain 17E); 1.56 µg/mL (≈ 2.68 µM) in test [2] (P. multocida strain 22A); 1.56 µg/mL (≈ 2.68 µM) in test [2] (P. multocida strain 40G). Besides, the MIC in test [2] (P. multocida strain 60A) and in test [2] (P. multocida strain 68C) was ≤ 0.78 µg/mL each time. In addition, the “Deaths in Treated Chicks/Deaths” value in test [3] (setting [5]) was 5/8; in test [3] (60 mg/kg × 2 s.c.) it was 2/8. Moreover, the “No. Died/No. Treated” value is listed as 0/5 in test [4] (Test A, replicate 1); 0/5 in test [4] (Test A, replicate 2); 0/5 in test [4] (Test B, replicate 1); 3/5 in test [4] (Test B, replicate 2).
Turning to `CCC1OC(=O)CC(O)C(C)C(OC2OC(C)C(O)C(N(C)C)C2O)C(CC=O)CC(C)C(=O)C=CC(C)=CC1C` (stereo not shown) [DOMT, 23-deoxy-5-O-mycaminosyltylonolide], the MIC came to 3.12 µg/mL (≈ 5.36 µM) in test [1] (P. haemolytica strain 23A); 3.12 µg/mL (≈ 5.36 µM) in test [1] (P. haemolytica strain 23C); 6.75 µg/mL (≈ 11.6 µM) in test [1] (P. haemolytica strain 41D); 1.56 µg/mL (≈ 2.68 µM) in test [2] (P. multocida strain 17E); 1.56 µg/mL (≈ 2.68 µM) in test [2] (P. multocida strain 22A); 3.12 µg/mL (≈ 5.36 µM) in test [2] (P. multocida strain 40G). Moreover, the MIC in test [2] (P. multocida strain 60A) and in test [2] (P. multocida strain 68C) was ≤ 0.78 µg/mL throughout. Besides, the “Deaths in Treated Chicks/Deaths” value in test [3] (setting [5]) is given as 1/9; in test [3] (setting [6]), 1/10.
